Experimental data as given in EP0308781A2, “Antimycotic preparations” (BAYER AG, priority 1987, dated 1989).

Tested on: Candida-Zellen
Experiment: Antimycotic in vivo efficacy (oral) in mouse candidosis
Set-up: species or system Mäuse vom Typ SPF-CF1; key to Wirkung: + + + + +: sehr gute Wirkung = 90 % Überlebende am 6.Tag.p.i.; + + + +: gute Wirkung = 80 % Überlebende am 6.Tag.p.i.; + + +: Wirkung = 60 % Überlebende am 6.Tag.p.i.; + +: schwache Wirkung = 40 % Überlebende am 6.Tag.p.i.; +: Spur Wirkung = unter 40 % Überlebende am 6. Tag p.i.; k.W.: kein Unterschied zur unbehandelten Infektionskontrolle
Conditions: for Wirkung: mice infected i.v. with 1 - 2 x 10^6 Candida cells, oral treatment with 10 - 100 mg/kg each, one hour before and seven hours after infection, survivors on day 6 p.i.
Experimental: Antimykotische in-vivo-Wirksamkeit (oral) bei Mäusecandidose
Mäuse vom Typ SPF-CF1 wurden intravenös mit […] logarithmisch wachsenden Candida-Zellen, die in physiologischer Kochsalzlösung suspendiert werden, infiziert. Eine Stunde vor und sieben Stunden nach der Infektion werden die Tiere mit jeweils 10 - 100 mg/kg Körpergewicht der Präparate oral behandelt.
Unbehandelte Tiere starben 3 bis 6 Tage post infektionem. Die Überlebensrate am 6.Tag post infektionem betrug bei unbehandelten Kontrolltieren etwa 5 %.

| SMILES | Wirkung | Wirkung (comparison with known compounds) (oral, mouse candidosis, statement in words, compared with (A) and (B)) |
| --- | --- | --- |
| OC(Cc1ccc(F)cc1)(Cn1cncn1)C1(Cl)CC1 (stereo not shown) [(I-1), 1-(4-Fluorphenyl)-2-(1-chlor-cyclopropyl)-3-(1,2,4-triazol-1-yl)-propan-2-ol] | + + + + + (sehr gute Wirkung = 90 % Überlebende am 6.Tag.p.i.) | bessere Wirkung |
| OC(Cn1cncn1)(c1ccc(Cl)cc1)C1(F)CC1 (stereo not shown) [(A)] | k.W. | – |
| OC(Cn1cncn1)(c1ccccc1)C1(F)CC1 (stereo not shown) [(B)] | k.W. | – |
